Test results from article PMC6442119, “The antitumor activity of CYB-L10, a human topoisomerase IB catalytic inhibitor” (Journal of Enzyme Inhibition and Medicinal Chemistry, 2019).

Tests used:
HepG2 = test: MTT assay; assay type: cell-based; settings: Homo sapiens; Parental cell line HepG2, MTT, 72 h
MCF-7/ADR = test: MTT assay; assay type: cell-based, human
MCF-7 = test: MTT assay; assay type: cell-based; settings: Homo sapiens, MCF7; Parental cell line MCF-7, MTT, 72 h
TOP1 = system: TOP1; set-up: method as in PMID 26188908; settings: compared with CPT; cited from earlier work
HCT116 xenograft = test: In vivo antitumor activity, HCT116 xenograft; set-up: species or system nude mice; settings: for tumor weight inhibition (TWI): HCT116 xenograft nude mice
Experimental: Athymic nude mice bearing the nu/nu gene were obtained from Laboratory Animal Center of Sun Yat-sen University and maintained in pathogen-free conditions to establish the model of xenografts of HCT116. All animals were used under the Policy on the Care and Use of Laboratory Animal of Sun Yat-sen University. Male nude mice 4–5 weeks old weighing 12–15 g were used. HCT116 tumor preinduced in the mice by subcutaneously injecting of HCT116 cells (100 µL, 1 × 10^7 cells) was implanted. When the implanted tumors had reached a volume of about 80 mm^3, the mice were randomly divided into three groups (n = 5) and administered by i.p. injection at a frequency of once every 3 days. The testing groups were treated with CYB-L10 at 20 mg/kg and 6.7 mg/kg dose, respectively. The control group was treated with an equivalent volume of saline. Tumor volumes (V) were monitored by caliper measurement of the length and width, and calculated using the formula: V = (larger diameter) × (smaller diameter)^2/2, and growth curves were plotted using average tumor volume within each experimental group at the set time points. At the end of treatment, the animals were sacrificed, and the tumors were removed and weighed. The tumor weight inhibition (TWI) was calculated according to the formula: TWI = (1 − Mean tumor weight of the experimental group/Mean tumor weight of the control group) × 100%. Statistical comparisons were conducted using a one-way analysis of variance, followed by Tukey’s test.
A human colon cancer HCT116 xenograft nude mice model was established to evaluate the antitumor efficiency of CYB-L10 in vivo. Mice were randomly divided into three groups and administered i.p. injection at a frequency of once every 3 days. Two groups were treated with CYB-L10 at 20 mg/kg and 6.7 mg/kg dose, respectively. The negative control group was treated with an equivalent volume of saline.

HCT116 = test: MTT assay; assay type: cell-based; settings: Homo sapiens, HCT-116; Parental cell line HCT116, MTT, 72 h
[1] = Pharmacokinetic study in rat; assay type: in vivo; settings: male, Sprague-Dawley, plasma, SD rats
Experimental: Blood samples (200 µL) were collected into heparinized tubes via the jugular vein at the following times: 0.083, 0.25, 0.5, 1, 2, 5, 7, and 24 h after dosing. Plasma samples (100 µL) were obtained after centrifugation for 10 min at 3000 rpm and stored at −20 °C until used for analysis. The plasma was detected through LC-MS/MS.
The in vivo pharmacokinetic (PK) study of CYB-L10 was conducted in SD rats. The SD rats were divided into two groups (n = 2) and treated by i.v. injection at 1 mg/kg dose and i.g. at 5 mg/kg dose, respectively. The plasma samples were collected up to 24 h postdose and measured for the concentration of CYB-L10. By i.v. administration, the AUC0→∞ was 241 ± 40 h·ng/mL, and T1/2 was 18.4 ± 5.12 h.

Work on `O=C1c2cccnc2C(=O)c2c1c(C(=O)OCCN1CCOCC1)c1ccccn21` [CYB-L10] yielded a GI50 (HepG2) of 65 ± 30 nM, a Resistance ratio (MCF-7/ADR; GI50 MCF-7/ADR / GI50 MCF-7) of 6.6 and a GI50 (MCF-7/ADR; Homo sapiens, NCI/ADR-RES, Resistant subline MCF-7/ADR, MTT, 72 h) of 600 ± 210 nM. The GI50 (MCF-7) was 91 nM, the TOP1 inhibition (TOP1) was “higher TOP1 inhibition than CPT” and the “tumor weight inhibition (TWI)” value (HCT116 xenograft; 6.7 mg/kg i.p. once every 3 days) was 27.6%. For the same compound, the “tumor weight inhibition (TWI)” value (HCT116 xenograft; 20 mg/kg i.p. once every 3 days, p < 0.05) was 38.3%, the “body weight of the mice” value (HCT116 xenograft; 20 and 6.7 mg/kg i.p., vs negative control) was “no obvious loss” and the tumor volume (HCT116 xenograft; 20 and 6.7 mg/kg i.p., vs negative control, dose-dependent) was “obviously reduced the tumor volume”. For the same compound, the GI50 (HCT116) was 27 ± 24 nM, the AUC(0-inf) ([1]; iv, i.v. 1 mg/kg) was 241 ± 40 ng·h/mL and the half-life ([1]; iv, i.v. 1 mg/kg) was 18.4 ± 5.12 h. For the same compound, the bioavailability ([1]; oral, i.g. 5 mg/kg vs i.v. 1 mg/kg, read-out: F (bioavailability)) was 6.3%, the AUC(0-inf) ([1]; po, i.g. 5 mg/kg) was 76 ± 16.5 ng·h/mL and the Cmax ([1]; po, i.g. 5 mg/kg) was 24.7 ± 6.59 ng/mL. For the same compound, the Tmax ([1]; po, i.g. 5 mg/kg) was 0.46 ± 0.1 h and the half-life ([1]; po, i.g. 5 mg/kg) was 18.4 ± 7.77 h.
